# Data: the supplement of paper PMC10307832
# Tests used:
# Assay in all cases: relative viability (nuclei count vs DMSO), 5 days (fraction); higher = more cells survive
# [1] = system: NCI-H1666
# How it was run: (§1)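 Lung cancer cell lines were seeded in 1536-well plates and dosed by pin tool the next day, with either a single drug or a fixed anchor-drug dose combined with five library-drug doses (not always all listed) spaced in √10 steps. Five days later, one step fixed the cells and stained their nuclei (final 0.05% Triton X-100, 1% formaldehyde, 1 ug/ml Hoechst), and nuclei were counted on 4× images. Relative viability is the nuclei count in treated wells divided by the count in vehicle wells, and each value is the median of duplicate plates.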
# [2] = system: NCI-H23
# How it was run: as §1
# [3] = system: LOU-NH91
# How it was run: as §1
# [4] = system: EPLC-272H
# How it was run: as §1
# [5] = system: NCI-H1563
# How it was run: as §1
# [6] = system: LCLC-103H
# How it was run: as §1
# [7] = system: NCI-H2085
# How it was run: as §1
# [8] = system: NCI-H1975
# How it was run: as §1
# [9] = system: NCI-H322M
# How it was run: as §1
# [10] = system: LU99A
# How it was run: as §1
# [11] = system: HCC-78
# How it was run: as §1
# [12] = system: NCI-H2405
# How it was run: as §1
# [13] = system: LXF-289
# How it was run: as §1
# [14] = system: LK-2
# How it was run: as §1
# [15] = system: SK-LU-1
# How it was run: as §1
# [16] = system: HCC-827
# How it was run: as §1
# [17] = system: RERF-LC-KJ
# How it was run: as §1
# [18] = system: SW 1573
# How it was run: as §1
# [19] = system: EMC-BAC-2
# How it was run: as §1
# [20] = system: NCI-H2126
# How it was run: as §1
# [21] = system: NCI-H3122
# How it was run: as §1
compound,measurement,setting,value
O=C(O)c1ccc(-c2c[nH]c3ncc(-c4ccccc4)cc23)cc1C1CCCC1 + C[C@]1(O)C[C@@H](c2nc(-c3ccc4ccc(-c5ccccc5)nc4c3)c3c(N)nccn32)C1 [Linsitinib] (partner 1 µM),relative viability,[1]; first compound 0.04 µM,0.755
same,relative viability,[1]; first compound 0.1265 µM,0.829
same,relative viability,[1]; first compound 0.4 µM,0.703
same,relative viability,[1]; first compound 1.265 µM,0.81
same,relative viability,[2]; first compound 0.04 µM,0.545
same,relative viability,[2]; first compound 0.1265 µM,0.617
same,relative viability,[2]; first compound 0.4 µM,0.559
same,relative viability,[2]; first compound 1.265 µM,0.451
same,relative viability,[3]; first compound 0.04 µM,0.983
same,relative viability,[3]; first compound 0.1265 µM,0.962
same,relative viability,[3]; first compound 0.4 µM,0.899
same,relative viability,[3]; first compound 1.265 µM,0.788
same,relative viability,[4]; first compound 0.04 µM,1.16
same,relative viability,[4]; first compound 0.1265 µM,1.19
same,relative viability,[4]; first compound 0.4 µM,1.42
same,relative viability,[4]; first compound 1.265 µM,0.857
same,relative viability,[5]; first compound 0.04 µM,1.22
same,relative viability,[5]; first compound 0.1265 µM,1.17
same,relative viability,[5]; first compound 0.4 µM,1.19
same,relative viability,[5]; first compound 1.265 µM,1.18
same,relative viability,[6]; first compound 0.04 µM,1.04
same,relative viability,[6]; first compound 0.1265 µM,1.04
same,relative viability,[6]; first compound 0.4 µM,1.17
same,relative viability,[6]; first compound 1.265 µM,1.08
same,relative viability,[7]; first compound 0.04 µM,0.938
same,relative viability,[7]; first compound 0.1265 µM,1.01
same,relative viability,[7]; first compound 0.4 µM,0.8
same,relative viability,[7]; first compound 1.265 µM,0.644
same,relative viability,[8]; first compound 0.04 µM,0.903
same,relative viability,[8]; first compound 0.1265 µM,0.935
same,relative viability,[8]; first compound 0.4 µM,0.951
same,relative viability,[8]; first compound 1.265 µM,1
same,relative viability,[9]; first compound 0.04 µM,0.913
same,relative viability,[9]; first compound 0.1265 µM,0.911
same,relative viability,[9]; first compound 0.4 µM,0.92
same,relative viability,[9]; first compound 1.265 µM,0.791
same,relative viability,[10]; first compound 0.04 µM,0.548
same,relative viability,[10]; first compound 0.1265 µM,0.528
same,relative viability,[10]; first compound 0.4 µM,0.533
same,relative viability,[10]; first compound 1.265 µM,0.511
same,relative viability,[11]; first compound 0.04 µM,0.431
same,relative viability,[11]; first compound 0.1265 µM,0.571
same,relative viability,[11]; first compound 0.4 µM,0.545
same,relative viability,[11]; first compound 1.265 µM,0.534
same,relative viability,[12]; first compound 0.04 µM,0.916
same,relative viability,[12]; first compound 0.1265 µM,0.932
same,relative viability,[12]; first compound 0.4 µM,0.908
same,relative viability,[12]; first compound 1.265 µM,0.603
same,relative viability,[13]; first compound 0.04 µM,0.94
same,relative viability,[13]; first compound 0.1265 µM,0.937
same,relative viability,[13]; first compound 0.4 µM,0.706
same,relative viability,[13]; first compound 1.265 µM,0.322
same,relative viability,[14]; first compound 0.04 µM,0.667
same,relative viability,[14]; first compound 0.1265 µM,0.587
same,relative viability,[14]; first compound 0.4 µM,0.549
same,relative viability,[14]; first compound 1.265 µM,0.902
same,relative viability,[15]; first compound 0.04 µM,1.06
same,relative viability,[15]; first compound 0.1265 µM,1
same,relative viability,[15]; first compound 0.4 µM,0.943
same,relative viability,[15]; first compound 1.265 µM,0.851
same,relative viability,[16]; first compound 0.04 µM,0.966
same,relative viability,[16]; first compound 0.1265 µM,0.976
same,relative viability,[16]; first compound 0.4 µM,0.884
same,relative viability,[16]; first compound 1.265 µM,0.702
same,relative viability,[17]; first compound 0.04 µM,0.86
same,relative viability,[17]; first compound 0.1265 µM,0.862
same,relative viability,[17]; first compound 0.4 µM,0.906
same,relative viability,[17]; first compound 1.265 µM,0.807
same,relative viability,[18]; first compound 0.04 µM,0.753
same,relative viability,[18]; first compound 0.1265 µM,0.763
same,relative viability,[18]; first compound 0.4 µM,0.882
same,relative viability,[18]; first compound 1.265 µM,0.569
same,relative viability,[19]; first compound 0.04 µM,0.823
same,relative viability,[19]; first compound 0.1265 µM,0.866
same,relative viability,[19]; first compound 0.4 µM,0.819
same,relative viability,[19]; first compound 1.265 µM,0.79
same,relative viability,[20]; first compound 0.04 µM,0.723
same,relative viability,[20]; first compound 0.1265 µM,0.732
same,relative viability,[20]; first compound 0.4 µM,0.7
same,relative viability,[20]; first compound 1.265 µM,0.623
same,relative viability,[21]; first compound 0.04 µM,0.966
same,relative viability,[21]; first compound 0.1265 µM,1.02
same,relative viability,[21]; first compound 0.4 µM,0.942
same,relative viability,[21]; first compound 1.265 µM,0.838
O=C(O)c1ccc(-c2c[nH]c3ncc(-c4ccccc4)cc23)cc1C1CCCC1 + Cc1nc(NC(=O)N2CCC[C@H]2C(N)=O)sc1-c1ccnc(C(C)(C)C(F)(F)F)c1 [Alpelisib] (partner 2 µM),relative viability,[1]; first compound 0.04 µM,0.965
same,relative viability,[1]; first compound 0.1265 µM,0.897
same,relative viability,[1]; first compound 0.4 µM,0.892
same,relative viability,[1]; first compound 1.265 µM,0.367
same,relative viability,[2]; first compound 0.04 µM,0.61
same,relative viability,[2]; first compound 0.1265 µM,0.852
same,relative viability,[2]; first compound 0.4 µM,0.672
same,relative viability,[2]; first compound 1.265 µM,0.423
same,relative viability,[3]; first compound 0.04 µM,0.756
same,relative viability,[3]; first compound 0.1265 µM,0.803
same,relative viability,[3]; first compound 0.4 µM,0.68
same,relative viability,[3]; first compound 1.265 µM,0.608
same,relative viability,[4]; first compound 0.04 µM,0.79
same,relative viability,[4]; first compound 0.1265 µM,0.974
same,relative viability,[4]; first compound 0.4 µM,0.949
same,relative viability,[4]; first compound 1.265 µM,0.633
same,relative viability,[5]; first compound 0.04 µM,1.01
same,relative viability,[5]; first compound 0.1265 µM,0.961
same,relative viability,[5]; first compound 0.4 µM,0.891
same,relative viability,[5]; first compound 1.265 µM,0.991
same,relative viability,[6]; first compound 0.04 µM,1.01
same,relative viability,[6]; first compound 0.1265 µM,1.02
same,relative viability,[6]; first compound 0.4 µM,1.08
same,relative viability,[6]; first compound 1.265 µM,0.984
same,relative viability,[7]; first compound 0.04 µM,1.03
same,relative viability,[7]; first compound 0.1265 µM,0.98
same,relative viability,[7]; first compound 0.4 µM,0.944
same,relative viability,[7]; first compound 1.265 µM,0.741
same,relative viability,[8]; first compound 0.04 µM,0.633
same,relative viability,[8]; first compound 0.1265 µM,0.817
same,relative viability,[8]; first compound 0.4 µM,0.652
same,relative viability,[8]; first compound 1.265 µM,0.578
same,relative viability,[9]; first compound 0.04 µM,0.979
same,relative viability,[9]; first compound 0.1265 µM,1
same,relative viability,[9]; first compound 0.4 µM,0.834
same,relative viability,[9]; first compound 1.265 µM,0.703
same,relative viability,[10]; first compound 0.04 µM,0.597
same,relative viability,[10]; first compound 0.1265 µM,0.615
same,relative viability,[10]; first compound 0.4 µM,0.485
same,relative viability,[10]; first compound 1.265 µM,0.425
same,relative viability,[11]; first compound 0.04 µM,0.397
same,relative viability,[11]; first compound 0.1265 µM,0.361
same,relative viability,[11]; first compound 0.4 µM,0.456
same,relative viability,[11]; first compound 1.265 µM,0.321
same,relative viability,[12]; first compound 0.04 µM,0.925
same,relative viability,[12]; first compound 0.1265 µM,0.746
same,relative viability,[12]; first compound 0.4 µM,0.796
same,relative viability,[12]; first compound 1.265 µM,0.591
same,relative viability,[13]; first compound 0.04 µM,0.979
same,relative viability,[13]; first compound 0.1265 µM,1.05
same,relative viability,[13]; first compound 0.4 µM,0.756
same,relative viability,[13]; first compound 1.265 µM,0.286
same,relative viability,[14]; first compound 0.04 µM,1.23
same,relative viability,[14]; first compound 0.1265 µM,0.612
same,relative viability,[14]; first compound 0.4 µM,1.19
same,relative viability,[14]; first compound 1.265 µM,1.08
same,relative viability,[15]; first compound 0.04 µM,0.901
same,relative viability,[15]; first compound 0.1265 µM,1.06
same,relative viability,[15]; first compound 0.4 µM,0.817
same,relative viability,[15]; first compound 1.265 µM,0.548
same,relative viability,[16]; first compound 0.04 µM,0.847
same,relative viability,[16]; first compound 0.1265 µM,0.988
same,relative viability,[16]; first compound 0.4 µM,0.89
same,relative viability,[16]; first compound 1.265 µM,0.747
same,relative viability,[17]; first compound 0.04 µM,0.838
same,relative viability,[17]; first compound 0.1265 µM,0.762
same,relative viability,[17]; first compound 0.4 µM,0.869
same,relative viability,[17]; first compound 1.265 µM,0.82
same,relative viability,[18]; first compound 0.04 µM,0.687
same,relative viability,[18]; first compound 0.1265 µM,0.89
same,relative viability,[18]; first compound 0.4 µM,0.797
same,relative viability,[18]; first compound 1.265 µM,0.891
same,relative viability,[19]; first compound 0.04 µM,0.739
same,relative viability,[19]; first compound 0.1265 µM,0.782
same,relative viability,[19]; first compound 0.4 µM,0.719
same,relative viability,[19]; first compound 1.265 µM,0.713
same,relative viability,[20]; first compound 0.04 µM,0.787
same,relative viability,[20]; first compound 0.1265 µM,0.76
same,relative viability,[20]; first compound 0.4 µM,0.696
same,relative viability,[20]; first compound 1.265 µM,0.629
same,relative viability,[21]; first compound 0.04 µM,0.724
same,relative viability,[21]; first compound 0.1265 µM,0.825
same,relative viability,[21]; first compound 0.4 µM,0.752
same,relative viability,[21]; first compound 1.265 µM,0.617
